Legend:
TNFα = TNFα expression; assay type: cell-based
Source text: Accordingly, in a further embodiment of the present invention, there is included a method of treating inflammatory diseases comprising administering a TNFα-downregulating effective amount of a compound of the invention to a subject in need thereof. A person skilled in the art would be able to identify TNFα-downregulating compounds of the invention by contacting one or more cells with a compound of the invention and assaying for the presence of one TNFα and comparing the levels of TNFα in the one or more cells with that of controls. Such methods are known in the art and are described in the examples herein below.

11β-HSD1 = target: T1, 11β-HSD1 (Homo sapiens, UniProt P28845); experiment: 11β-HSD1 activity in lysates of stably transfected HEK-293 cells; assay type: biochemical; details: cell lysate
T1 construct: expressed in transfected cells
T1 sequence (P28845 whole entry): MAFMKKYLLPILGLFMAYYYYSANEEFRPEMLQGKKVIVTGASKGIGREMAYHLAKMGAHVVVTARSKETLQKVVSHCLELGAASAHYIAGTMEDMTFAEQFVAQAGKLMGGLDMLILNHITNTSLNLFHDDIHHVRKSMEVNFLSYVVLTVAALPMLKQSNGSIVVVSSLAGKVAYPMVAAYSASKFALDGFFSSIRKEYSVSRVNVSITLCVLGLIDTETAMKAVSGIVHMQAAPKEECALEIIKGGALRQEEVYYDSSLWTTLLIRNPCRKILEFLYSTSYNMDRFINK
Procedure: (§1) Cell culture media were purchased from Invitrogen, Basel, Switzerland. [1,2,6,7-3H]-cortisol was from Amersham Pharmacia, Dubendorf, Switzerland. [1,2,6,7-3H]-cortisone was produced by incubating 1 mCi of [1,2,6,7-3H]-cortisol with 1 mg of lysate of HEK-293 cells expressing 11β-HSD2 in the presence of 1 mM NAD+. Incubation was for 16 h at 37° C. […] The product was run for a second chromatographic purification step on the same TLC system. […] All other chemicals were from Fluka AG, Buchs, Switzerland and were of the highest grade available.
HEK-293 cells were transfected with the plasmid for expression of carboxy-terminally FLAG-epitope tagged 11β-HSD1 or 11β-HSD2, respectively, that were described previously. […] Non-resistant cells were removed by replacing the cell culture medium every third day for 3 weeks.
For determination of oxidative activity of 11β-HSD enzymes, cells were lysed by sonication and the cell lysate was diluted 1:12 in buffer TS2 (at 4° C.).
(§2) Similarly, reductase activity was measured in a reaction containing NADPH, 30 nCi of [1,2,6,7-3H]-cortisone and unlabeled cortisone, whereby final concentrations were 400 μM NADPH and 10 nM cortisone. […] Activities were determined measuring the conversion of either radiolabeled cortisone or cortisol for 5-20 min using substrate concentrations in the range between 10 nM and 10 μM. 11β-HSD1 activities were measured immediately after cell disruption. […] Results are expressed as mean±S.D. and consist of at least three independent measurements.

11β-HSD2 = target: T2, 11β-HSD2 (Homo sapiens, UniProt P80365); experiment: 11β-HSD2 activity in lysates of stably transfected HEK-293 cells; assay type: biochemical; details: cell lysate
T2 construct: expressed in transfected cells
T2 sequence (P80365 1-405): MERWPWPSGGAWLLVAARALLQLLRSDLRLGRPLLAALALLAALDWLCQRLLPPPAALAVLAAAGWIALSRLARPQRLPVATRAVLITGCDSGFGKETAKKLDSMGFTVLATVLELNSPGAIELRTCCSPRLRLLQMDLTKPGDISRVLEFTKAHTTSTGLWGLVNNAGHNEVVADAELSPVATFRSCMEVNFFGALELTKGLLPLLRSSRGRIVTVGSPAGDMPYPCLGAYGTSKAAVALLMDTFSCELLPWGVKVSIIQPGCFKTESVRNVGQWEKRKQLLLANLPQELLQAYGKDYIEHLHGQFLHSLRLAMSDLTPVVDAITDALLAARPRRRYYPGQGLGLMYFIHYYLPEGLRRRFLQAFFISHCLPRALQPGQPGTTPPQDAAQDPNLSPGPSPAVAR
Procedure: as §1
HEK-293 cells were transfected with the plasmid for expression of carboxy-terminally FLAG-epitope tagged 11β-HSD1 or 11β-HSD2, respectively, that were described previously. […] Non-resistant cells were removed by replacing the cell culture medium every third day for 3 weeks. […]
as §2

CK-2 = details: 30 μM GA; cited from earlier work
[1] = system: murine retinal ganglion cells; details: cited from earlier work
PKC and CK-I = details: GL (100 μM); cited from earlier work

SMILES	IC50 (11β-HSD1)	IC50 (11β-HSD2)	further results
CC(=O)O[C@H]1CC[C@@]2(C)C(CC[C@]3(C)C2C(=O)C=C2C4C[C@@](C)(C(=O)NO)CC[C@]4(C)CC[C@]23C)C1(C)C (stereo partly drawn) [Compound 1, (3S,18R,20S)-3-(Acetyloxy)-N-hydroxy-11-oxo-olean-12-en-29-amide]	–	–	TNFα expression (TNFα): inhibit
CC1(C)C2CC[C@]3(C)C(C(=O)C=C4C5C[C@@](C)(C(=O)NO)CC[C@]5(C)CC[C@]43C)[C@@]2(C)CC[C@@H]1O (stereo partly drawn) [Compound 2, (3S,18R,20S)-3-Hydroxy-N-hydroxy-11-oxo-olean-12-en-29-amide]	1160 nM	–	inhibition at 1 µM (11β-HSD1; Concentration 1000 nmol/L, read-out: Reduction of 11β-HSD1 Activity (%) (average ± standard deviation)): 46.7 ± 13.8%
CON[C@H]1CC[C@@]2(C)C(CC[C@]3(C)C2C(=O)C=C2C4C[C@@](C)(C(=O)N(C)O)CC[C@]4(C)CC[C@]23C)C1(C)C (stereo partly drawn) [Compound 10, (3S,18R,20S)-N-Hydroxy-N-methyl-3-methoxamino-11-dioxo-olean-12-en-29-amide]	> 40000 nM	547 nM	–
CONC(=O)[C@@]1(C)CC[C@]2(C)CC[C@]3(C)C(=CC(=O)C4[C@@]5(C)CC[C@H](O)C(C)(C)C5CC[C@]43C)C2C1 (stereo partly drawn) [Compound 16, (3S,18R,20S)-3-Hydroxy-N-methoxy-11-oxo-olean-12-en-29-amide]	929 nM	2130 nM	–
CC1(C)[C@@H](O)CC[C@]2(C)[C@H]3C(=O)C=C4[C@@H]5C[C@@](C)(C(=O)O)CC[C@]5(C)CC[C@@]4(C)[C@]3(C)CC[C@@H]12 [GA, Glycyrrhetinic acid]	–	–	phosphorylation of C3α by CK-2 (CK-2): completely inhibited; postsynaptic light response [1]: 30 % of control
CC1(C)[C@@H](O[C@H]2O[C@H](C(=O)O)[C@@H](O)[C@H](O)[C@H]2O[C@@H]2O[C@H](C(=O)O)[C@@H](O)[C@H](O)[C@H]2O)CC[C@]2(C)[C@H]3C(=O)C=C4[C@@H]5C[C@@](C)(C(=O)O)CC[C@]5(C)CC[C@@]4(C)[C@]3(C)CC[C@@H]12 [GL, glycyrrhizin]	–	–	phosphorylation of HMGB1/2 by PKC and CK-I (PKC and CK-I): completely inhibits
